Patent US4542141A, “Compound having vasodilating, antiaggregating and hypocholesterolemic activities, process for the preparation thereof and pharmaceutical compositions therefrom” (Edmond Pharma s.r.l., priority 1982, dated 1985)

Legend:
[1] = Hypocholesterolemic action in rats fed with Nath's diet; type: in vivo; details: 200 mg/kg per os, 40 days
Experimental: 24 Hours after the last administration, the survived animals have been sacrificed and the dosage of total serum cholesterol, serum triglycerides, serum phospholipids and serum free fatty acids has been performed according to the methods described by Abell et al. (J. Biol. Chem., 195, 375, 1952), VAN HANDALL et al. (J. Lab. Clin. Med., 50, 152, 1957), MORRISON (Anal. Biochem., 7, 218, 1964), DOLE AND MEINERTZ (J. Biol. Chem., 235, 2595, 1960).
The livers were withdrawn and weighed, homogenized and extracted in soxhlet. The extracted lipids, evaporated, have been weighed and expresses as % of fresh organ.

[2] = test system: cutaneous temperature of the paw; experiment: Vasodilating action in the mouse (cutaneous temperature of the paw); type: in vivo, Swiss male whitish mice; details: for mean variation of the cutaneous temperature in the 3h following the treatment: in °C (unit assumed)
Experimental: Swiss male whitish mice weighing about 20 g have been used. The cutaneous temperature of the paw has been measured, in conditioned room by means of a suitable thermometric equipment, (a) for three times, at 30 minutes intervals, before treatment (basal temperature), and (b) every 30 minutes in the three hours following the drugs treatment.

[3] = Pharmacokinetics in the rat by the oral route; details: equimolar doses, compared with VQG 582
[4] = rat, in vivo
[5] = test system: platelet aggregation induced by adrenaline; experiment: "Ex vivo" platelet antiaggregating action; type: in vivo, rabbits; details: rabbit PRP, 35 mcg/ml adrenaline
Description: By this test, the effect of VQG 582, acetylsalicylic acid or sulfinpyrazone pretreatment of rabbits on the platelet aggregation induced on the PRP of these animals by 35 mcg/ml adrenaline, has been valued.

[6] = test system: thrombocytopenia induced by Arthus reaction; experiment: Inhibition of the thrombocytopenia induced by Arthus reaction in the guinea-pig; type: in vivo, guinea pigs; details: guinea pig after antigenic reaction, 100 mg/kg os; for % inhibition: thrombocytopenia
Description: The method described by White and Butler (Thromb. Diath. Haemorr., 34, 533, 1975) has been used.

[7] = Acute toxicity in the mouse (LD50, Probits method); details: in vivo
Experimental: (§1) The study has been performed using whitish Swiss mice weighing about 20 g and Wistar rats, in the phase of weight increase, weighing about 150 g, of both sexes. The product has been administered to fasted animals (2 hours for mice and 18 hours for rats) by gastric tube (oral route) or intraperitoneal injection. Sulfipyrazone has been used as reference drug.
(§2) For the statistic calculation of LD50 and of the respective confidence limits for p=0.05, the Probits method was followed (Finney D. J.--Probit analysis-Cambridge Univ. Press, London and New York, 1952), taking into account the death rates in the 8 days following the treatments.

[8] = Acute toxicity in the rat (LD50, Probits method); details: in vivo
Experimental: as §1, §2

[9] = ip, intraperitoneal route, female
[10] = ip, intraperitoneal route, male

SMILES	% dead animals [1] [%]	serum cholesterol [1] [mg/100 ml]	serum free fatty acids [1] [mg/100 ml]	serum phospholipids [1] [mg/100 ml]	N. platelets ± S.E. [6]	% inhibition [6] [%]	mean variation of the cutaneous temperature in the 3h following the treatment ([2]; 100 mg/kg os)	inhibition % ([5]; 40 mg/kg os) [%]	inhibition % ([5]; 80 mg/kg os) [%]	inhibition % ([5]; 120 mg/kg os) [%]	LD50 at 192 h [7, 9] [mg/kg]	LD50 at 192 h [7, 10] [mg/kg]	LD50 at 192 h ([7]; po, female) [mg/kg]	LD50 at 192 h ([7]; po, male) [mg/kg]	LD50 at 192 h [8, 9] [mg/kg]	LD50 at 192 h [8, 10] [mg/kg]	LD50 at 192 h ([8]; po, female) [mg/kg]	LD50 at 192 h ([8]; po, male) [mg/kg]	also measured
O=C(O)c1cccnc1 [nicotinic acid]	10	324.3	0.39	161.7	–	–	–	–	–	–	–	–	–	–	–	–	–	–	max. effect time ([2]; 50 mg/kg os): 30 min; mean variation of the cutaneous temperature in the 3h following the treatment ([2]; 50 mg/kg os): +0.75; absorption [3]: faster absorption; AUC ([4]; po): AUC superimposable to VQG 582
CC(=O)Oc1ccccc1C(=O)O [ASA, acetylsalicylic acid]	–	–	–	–	–	–	–	–	–	–	–	–	–	–	–	–	–	–	inhibition % ([5]; 50 mg/kg os): 30%; inhibition % ([5]; 75 mg/kg os): 70%; inhibition % ([5]; 100 mg/kg os): 100%
O=C(OCC1(CC[S+]([O-])c2ccccc2)C(=O)N(c2ccccc2)N(c2ccccc2)C1=O)c1cccnc1 (centres unmarked) [VQG 582, 1,2-diphenyl-4-[2-(phenylsulfinyl)-ethyl]-4-(nicotinoyloxymethyl)-pyrazolidine-3,5-dione]	10	294.1	0.31	157.1	218.5 10^3 /mm^3	70.2	+0.60	15	70	85	3250	3130	> 4000	> 4000	2320	2690	> 4000	> 4000	serum triglycerides [1]: 113.8 mg/100 ml; liver lipids % ([1]; % of fresh organ): 16.0%; max. effect time ([2]; 100 mg/kg os): 60 min; pharmacological action after oral administration [4]: pharmacological action clearly delayed; blood concentrations expressed as sulfinpyrazone ([4]; po): prolongation of the blood concentrations expressed as sulfinpyrazone; metabolism ([4]; po): metabolized via an intermediate step, respectively to nicotinic acid and sulfinpyrazone; presence of unchanged compound in the plasma ([4]; po): found unchanged in the plasma 30 minutes to 1 hour after the treatment
O=C1C(CC[S+]([O-])c2ccccc2)C(=O)N(c2ccccc2)N1c1ccccc1 (centres unmarked) [sulfinpyrazone, 1,2-diphenyl-4-[2-(phenylsulfinyl)ethyl]-pyrazoline-3,5-dione]	–	–	–	–	204.3 10^3 /mm^3	63.1	+0.05	5	30	70	159	163	335	368	157	149	390	348	–
